For test [1], the system named is HCT-116. Briefly: Induction of apoptosis in human HCT116 cells assessed as early apoptotic cells at 1 uM after 24 hrs using annexin V/propidium iodide staining based flow cytometry (reference value: 1.93%). Type of test: functional.
A short description of test [2]: Antiproliferative activity against human HuH7 cells assessed as inhibition of absorbance after 72 hrs by MTT assay. It counts as functional, cell-based. The note with it: Huh-7, 72 h.
Test [3] concerns HCT-116. The test can be described thus: Induction of apoptosis in human HCT116 cells assessed as late apoptotic cells at 0.5 uM after 24 hrs using annexin V/propidium iodide staining based flow cytometry (reference value: 0.710%). It counts as functional.
For test [4], the system named is HCT-116. Briefly: Induction of apoptosis in human HCT116 cells assessed as early apoptotic cells at 2 uM after 24 hrs using annexin V/propidium iodide staining based flow cytometry (reference value: 1.93%). Type of test: functional.
Test [5] relates to HCT-116. Briefly: Induction of apoptosis in human HCT116 cells assessed as necrotic cells at 0.5 uM after 24 hrs using annexin V/propidium iodide staining based flow cytometry (reference value: 4.09%). Type of test: functional.
Test [6] relates to HCT-116. Briefly: Induction of apoptosis in human HCT116 cells assessed as early apoptotic cells at 0.5 uM after 24 hrs using annexin V/propidium iodide staining based flow cytometry (reference value: 1.93%). Type of test: functional.
Test [7] deals with T1, Phosphatidylinositol 4,5-bisphosphate 3-kinase catalytic subunit delta isoform (Homo sapiens, UniProt O00329).
T1 sequence (O00329 whole entry): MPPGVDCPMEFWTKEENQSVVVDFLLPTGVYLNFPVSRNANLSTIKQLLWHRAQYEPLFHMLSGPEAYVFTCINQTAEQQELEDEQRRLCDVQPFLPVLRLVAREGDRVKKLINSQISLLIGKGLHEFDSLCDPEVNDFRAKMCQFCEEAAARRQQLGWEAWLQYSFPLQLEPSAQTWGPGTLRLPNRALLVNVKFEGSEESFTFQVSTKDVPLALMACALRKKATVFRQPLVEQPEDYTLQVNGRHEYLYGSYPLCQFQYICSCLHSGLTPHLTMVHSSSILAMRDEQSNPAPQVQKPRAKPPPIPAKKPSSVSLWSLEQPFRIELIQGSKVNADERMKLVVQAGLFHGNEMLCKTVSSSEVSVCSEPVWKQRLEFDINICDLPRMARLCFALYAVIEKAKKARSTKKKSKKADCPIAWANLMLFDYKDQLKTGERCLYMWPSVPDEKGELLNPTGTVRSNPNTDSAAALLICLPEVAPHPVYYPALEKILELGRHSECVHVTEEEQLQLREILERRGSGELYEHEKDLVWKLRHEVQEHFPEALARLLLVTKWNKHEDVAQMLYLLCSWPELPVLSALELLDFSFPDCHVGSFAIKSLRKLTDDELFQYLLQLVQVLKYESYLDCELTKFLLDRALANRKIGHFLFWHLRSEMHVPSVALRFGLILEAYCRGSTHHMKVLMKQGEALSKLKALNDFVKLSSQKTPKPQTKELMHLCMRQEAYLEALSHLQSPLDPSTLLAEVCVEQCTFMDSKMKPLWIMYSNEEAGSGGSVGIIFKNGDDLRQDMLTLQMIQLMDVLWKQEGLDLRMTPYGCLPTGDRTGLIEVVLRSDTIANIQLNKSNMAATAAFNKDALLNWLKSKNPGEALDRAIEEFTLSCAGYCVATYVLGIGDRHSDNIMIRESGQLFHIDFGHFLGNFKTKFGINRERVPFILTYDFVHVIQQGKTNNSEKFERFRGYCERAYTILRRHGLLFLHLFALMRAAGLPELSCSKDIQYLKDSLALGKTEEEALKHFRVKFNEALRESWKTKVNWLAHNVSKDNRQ
Briefly: Inhibition of recombinant PI3Kdelta (unknown origin) using […] as substrate after 3 hrs incubation by competitive fluorescence polarization kinase activity assay.

Test [8] can be described thus: Antiproliferative activity against human HL60 cells assessed as inhibition of absorbance after 72 hrs by MTT assay. It counts as functional, cell-based. The note with it: HL-60, 72 h.
For test [9], the system named is HCT-116. The test can be described thus: Induction of apoptosis in human HCT116 cells assessed as necrotic cells at 2 uM after 24 hrs using annexin V/propidium iodide staining based flow cytometry (reference value: 4.09%). It counts as functional.
In test [10] the test system is HCT-116. Briefly: Induction of apoptosis in human HCT116 cells assessed as viable cells at 0.5 uM after 24 hrs using annexin V/propidium iodide staining based flow cytometry (reference value: 93.3%). It counts as functional. The note with it: HCT-116, 24 h, read-out: Activity.
The subject of test [11] is HCT-116. The test can be described thus: Induction of apoptosis in human HCT116 cells assessed as viable cells at 2 uM after 24 hrs using annexin V/propidium iodide staining based flow cytometry (reference value: 93.3%). As to conditions: HCT-116, 24 h, read-out: Activity. It counts as functional.
The test system of test [12] is HCT-116. The test can be described thus: Induction of apoptosis in human HCT116 cells after 24 hrs using annexin V/propidium iodide staining based flow cytometry. Type of test: functional, cell-based.
Test [13] deals with HCT-116. The test can be described thus: Induction of apoptosis in human HCT116 cells assessed as late apoptotic cells at 2 uM after 24 hrs using annexin V/propidium iodide staining based flow cytometry (reference value: 0.710%). Type of test: functional.
In test [14] the test system is HCT-116. The test can be described thus: Induction of apoptosis in human HCT116 cells assessed as late apoptotic cells at 1 uM after 24 hrs using annexin V/propidium iodide staining based flow cytometry (reference value: 0.710%). It counts as functional.
The test system of the next test is A549. Briefly: Antiproliferative activity against human A549 cells assessed as inhibition of absorbance after 72 hrs by MTT assay. Type of test: functional, cell-based. The note with it: A549, 72 h.
In test [15] the test system is HCT-116. The test can be described thus: Induction of apoptosis in human HCT116 cells assessed as necrotic cells at 1 uM after 24 hrs using annexin V/propidium iodide staining based flow cytometry (reference value: 4.09%). It counts as functional.
Test [16] has as its target Phosphatidylinositol 4,5-bisphosphate 3-kinase catalytic subunit beta isoform (Homo sapiens, UniProt P42338). The test can be described thus: Inhibition of recombinant PI3Kbeta (unknown origin) […] after 3 hrs incubation by competitive fluorescence polarization kinase activity assay.
In test [17] the test system is HCT-116. The test can be described thus: Induction of apoptosis in human HCT116 cells assessed as viable cells at 1 uM after 24 hrs using annexin V/propidium iodide staining based flow cytometry (reference value: 93.3%). It counts as functional. As to conditions: HCT-116, 24 h, read-out: Activity.
Test [18] deals with HCT-116. Briefly: Induction of apoptosis in human HCT116 cells assessed as early apoptotic cells after 24 hrs using annexin V/propidium iodide staining based flow cytometry. Type of test: functional, cell-based.
A short description of test [19]: Antiproliferative activity against human HCT116 cells assessed as inhibition of absorbance after 72 hrs by MTT assay. Type of test: functional, cell-based. The note with it: HCT-116, 72 h.
For test [20], the target named is Phosphatidylinositol 4,5-bisphosphate 3-kinase catalytic subunit gamma isoform (Homo sapiens, UniProt P48736). Briefly: Inhibition of recombinant PI3Kgamma (unknown origin) using […] as substrate after 3 hrs incubation by competitive fluorescence polarization kinase activity assay.
Phosphatidylinositol 4,5-bisphosphate 3-kinase catalytic subunit gamma isoform, sequence (P48736 whole entry, canonical isoform): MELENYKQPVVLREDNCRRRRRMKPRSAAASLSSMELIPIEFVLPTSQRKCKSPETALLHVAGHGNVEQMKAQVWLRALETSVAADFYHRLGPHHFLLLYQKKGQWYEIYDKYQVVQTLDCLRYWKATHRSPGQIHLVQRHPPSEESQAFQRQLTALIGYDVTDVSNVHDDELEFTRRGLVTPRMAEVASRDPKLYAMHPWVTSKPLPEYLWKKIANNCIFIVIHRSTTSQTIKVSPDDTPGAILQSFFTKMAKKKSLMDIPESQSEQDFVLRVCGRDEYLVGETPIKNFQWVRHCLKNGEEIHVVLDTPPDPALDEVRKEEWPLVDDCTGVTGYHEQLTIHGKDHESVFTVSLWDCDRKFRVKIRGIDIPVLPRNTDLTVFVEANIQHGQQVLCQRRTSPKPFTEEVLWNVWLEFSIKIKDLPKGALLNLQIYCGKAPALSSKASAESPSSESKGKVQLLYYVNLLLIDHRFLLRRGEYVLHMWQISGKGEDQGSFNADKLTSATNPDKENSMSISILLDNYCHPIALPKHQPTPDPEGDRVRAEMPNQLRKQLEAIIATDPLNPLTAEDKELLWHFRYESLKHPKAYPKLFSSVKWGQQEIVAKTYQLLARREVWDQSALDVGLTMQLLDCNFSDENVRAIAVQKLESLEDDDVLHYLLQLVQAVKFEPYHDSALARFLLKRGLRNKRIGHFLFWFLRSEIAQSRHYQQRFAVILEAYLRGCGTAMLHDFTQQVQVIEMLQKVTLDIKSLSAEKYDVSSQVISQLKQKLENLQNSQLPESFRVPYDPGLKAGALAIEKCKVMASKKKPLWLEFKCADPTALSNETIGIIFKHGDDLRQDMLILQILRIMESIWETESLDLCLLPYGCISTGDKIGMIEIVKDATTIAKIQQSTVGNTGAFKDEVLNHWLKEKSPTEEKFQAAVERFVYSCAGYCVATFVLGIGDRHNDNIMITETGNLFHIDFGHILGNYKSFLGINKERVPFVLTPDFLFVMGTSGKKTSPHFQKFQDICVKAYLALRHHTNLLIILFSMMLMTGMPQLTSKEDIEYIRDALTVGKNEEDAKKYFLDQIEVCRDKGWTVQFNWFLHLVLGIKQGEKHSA
For test [21], the target named is Phosphatidylinositol 4,5-bisphosphate 3-kinase catalytic subunit alpha isoform (Homo sapiens, UniProt P42336). Briefly: Inhibition of recombinant PI3Kalpha (unknown origin) using […] as substrate after 3 hrs incubation by competitive fluorescence polarization kinase activity assay.
Phosphatidylinositol 4,5-bisphosphate 3-kinase catalytic subunit alpha isoform, sequence (P42336 whole entry, canonical isoform): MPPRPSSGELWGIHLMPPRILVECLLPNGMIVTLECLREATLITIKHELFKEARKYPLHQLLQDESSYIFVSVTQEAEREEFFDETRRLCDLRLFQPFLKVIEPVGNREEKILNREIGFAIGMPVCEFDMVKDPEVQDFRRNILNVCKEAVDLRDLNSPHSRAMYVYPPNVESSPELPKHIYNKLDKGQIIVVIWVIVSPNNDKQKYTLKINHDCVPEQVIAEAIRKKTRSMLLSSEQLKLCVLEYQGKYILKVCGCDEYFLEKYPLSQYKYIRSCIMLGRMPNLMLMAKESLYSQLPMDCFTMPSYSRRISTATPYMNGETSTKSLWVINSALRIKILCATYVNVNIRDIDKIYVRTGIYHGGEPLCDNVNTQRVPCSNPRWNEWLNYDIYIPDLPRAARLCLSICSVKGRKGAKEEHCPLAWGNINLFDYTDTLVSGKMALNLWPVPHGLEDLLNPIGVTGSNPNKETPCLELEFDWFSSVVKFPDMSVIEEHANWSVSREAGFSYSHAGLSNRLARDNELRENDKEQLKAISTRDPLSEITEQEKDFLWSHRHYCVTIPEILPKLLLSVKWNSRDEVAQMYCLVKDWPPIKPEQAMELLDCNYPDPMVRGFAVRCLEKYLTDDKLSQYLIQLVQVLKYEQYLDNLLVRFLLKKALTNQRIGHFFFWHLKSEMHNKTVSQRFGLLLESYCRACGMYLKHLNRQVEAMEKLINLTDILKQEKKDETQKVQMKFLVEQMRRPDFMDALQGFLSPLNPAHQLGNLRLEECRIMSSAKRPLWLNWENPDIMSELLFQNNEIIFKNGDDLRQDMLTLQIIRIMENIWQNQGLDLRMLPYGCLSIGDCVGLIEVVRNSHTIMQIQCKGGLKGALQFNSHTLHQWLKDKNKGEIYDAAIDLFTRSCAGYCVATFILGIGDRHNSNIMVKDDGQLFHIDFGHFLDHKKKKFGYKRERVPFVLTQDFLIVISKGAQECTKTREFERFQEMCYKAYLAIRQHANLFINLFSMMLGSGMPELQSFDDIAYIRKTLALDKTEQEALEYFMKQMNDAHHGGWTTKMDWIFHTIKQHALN

Phosphatidylinositol 4,5-bisphosphate 3-kinase catalytic subunit beta isoform, sequence (P42338 whole entry, canonical isoform): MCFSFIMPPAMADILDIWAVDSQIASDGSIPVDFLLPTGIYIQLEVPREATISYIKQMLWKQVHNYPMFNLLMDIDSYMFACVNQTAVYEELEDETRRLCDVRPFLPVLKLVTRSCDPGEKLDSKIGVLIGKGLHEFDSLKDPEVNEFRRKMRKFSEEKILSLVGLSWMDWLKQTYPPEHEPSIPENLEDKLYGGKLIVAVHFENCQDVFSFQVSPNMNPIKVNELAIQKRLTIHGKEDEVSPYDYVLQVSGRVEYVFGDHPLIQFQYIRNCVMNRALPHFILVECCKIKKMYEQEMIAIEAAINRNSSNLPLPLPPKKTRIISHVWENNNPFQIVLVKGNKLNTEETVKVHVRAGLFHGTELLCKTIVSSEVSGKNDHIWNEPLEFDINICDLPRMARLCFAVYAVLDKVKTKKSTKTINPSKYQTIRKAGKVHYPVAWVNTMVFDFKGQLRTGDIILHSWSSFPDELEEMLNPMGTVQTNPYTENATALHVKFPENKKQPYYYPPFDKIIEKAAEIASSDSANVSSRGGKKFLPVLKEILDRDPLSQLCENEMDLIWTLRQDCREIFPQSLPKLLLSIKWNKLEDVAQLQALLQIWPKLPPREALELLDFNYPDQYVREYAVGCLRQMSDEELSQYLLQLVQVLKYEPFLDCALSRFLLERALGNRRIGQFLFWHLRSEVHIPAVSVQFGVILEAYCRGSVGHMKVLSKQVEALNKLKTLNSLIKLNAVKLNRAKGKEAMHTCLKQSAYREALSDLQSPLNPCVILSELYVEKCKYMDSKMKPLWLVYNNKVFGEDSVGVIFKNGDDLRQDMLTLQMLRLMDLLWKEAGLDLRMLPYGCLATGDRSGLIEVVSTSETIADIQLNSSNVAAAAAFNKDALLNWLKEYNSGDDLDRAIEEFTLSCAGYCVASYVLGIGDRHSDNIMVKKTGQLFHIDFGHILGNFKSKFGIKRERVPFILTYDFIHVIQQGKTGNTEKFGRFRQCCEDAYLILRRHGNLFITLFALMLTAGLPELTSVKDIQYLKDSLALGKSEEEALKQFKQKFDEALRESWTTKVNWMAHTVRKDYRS

As for `Cc1ccc2c(c1)-c1nc3cc([N+](=O)[O-])ccc3n1CCO2`, the Activity in the test on HCT-116 [1] is 17.8%; with HCT-116 [3], 4.91%; in the test with HCT-116 [4], 27.3%; in the test on HCT-116 [5], 0.523%; in the test on HCT-116 [6], 15.1%; in the test with HCT-116 [9] it was 0.974%. For the same compound, the Activity entry in the test on HCT-116 [12] is “Dose-dependent effect”; with HCT-116 [13], 5.98%; in the test with HCT-116 [14], 4.13%; in the test on HCT-116 [15], 1.26%; in the test with HCT-116 [18], “Dose-dependent effect”. In addition, the IC50 in test [2] stood at 0.12 µM; in test [7], 34.6 µM; in [8], 0.1 µM; in the test with A549, 0.11 µM; in [16], 0.184 µM; in [19], 0.08 µM. Besides, the half-maximal inhibitory concentration (IC50) in [20] worked out at 9.44 µM; in test [21], 0.016 µM. Besides, in the test on HCT-116 [10], the viability at 0.5 µM is 79.5%. Besides, in the test with HCT-116 [11], the viability at 2 µM is 65.7%. In the test on HCT-116 [17], the viability at 1 µM was determined as 76.8%.

The values above are taken from ChEMBL document CHEMBL3400096, “6,7-Dihydrobenzo[f]benzo[4,5]imidazo[1,2-d][1,4]oxazepine derivatives as selective inhibitors of PI3Kα” (Bioorg Med Chem, 2015).
